Reference: US9388175B2, “2-aniline-4-aryl substituted thiazole derivatives” (Janssen Pharmaceutica N.V., priority 2005, dated 2016)
Counter-ions that a name gives are not always drawn.

Target: T1, hα7-wt nAChR stably expressed in the GH4C1 cell line (Homo sapiens, UniProt P36544)
T1 construct: expressed in transfected cells
Experiment: Ca2+ flux imaging (FLIPR) of PAM activity with choline as agonist
Assay type: cell-based
Conditions: efficacy relative to 100 μM choline alone (defined as 1); peak fluorescence, fluo-4AM; compounds tested 0.1 μM to 30 μM, efficacy criterion at 10 μM
From the text: Stable expression in mammalian cells in general and rat GH4C1 cells in particular, of cDNA clones encoding the human α7 wild-type sequence (hα7-wt nAChR) and in which the coding region is placed downstream of a promoter results in the appearance of functional α7 nAChRs on the surface of the mammalian cells. This technique has provided a powerful means of assessing the function of α7 wild-type protein. Given the fact that the cation permeability of the α7 nicotinic receptor preferentially favours calcium, fluorescent imaging of Ca^2+ flux through the hα7-wt nAChR stably expressed in the GH4C1 cell line was used as a first means of assaying modulator activity of the compounds of the present invention.
a) Assay Buffer • Hanks buffered saline solution (HBSS, Invitrogen, Belgium), supplemented with 10 mM HEPES (Invitrogen, Belgium), CaCl2 to a final concentration of 5 mM, 0.1% Bovine serum albumin (Sigma-Aldrich NV, Belgium), 2.5 mM probenecid (Sigma-Aldrich NV, Belgium).
b) Calcium-Sensitive Dye—Fluo-4AM • Fluo-4AM (Molecular Probes, USA) was dissolved in DMSO containing 10% Pluronic acid (Molecular Probes, USA) to give a stock solution which was aliquoted and could be stored at −20° C. until later use. On the day of the experiment Fluo-4AM stock was defrosted and diluted in DMEM/F12 (Invitrogen, Belgium) containing 2.5 mM probenicid and 0.1% BSA to give a final concentration of 2 μM.
c) 96-well Plates • BD Biocoat poly-D-lysine 96-well black/clear bottom plates (BD Biosciences, Belgium)
d) Calcium Flux Measurement • A Fluorimetric Imaging Plate Reader (FLIPR, Molecular Devices Corporation, Sunnyvale, USA) was used to measure intracellular free-calcium flux signals
Monolayers of hα7-wt nAChR-expressing cells were grown in multi-well plates, in particular black-sided, transparent bottomed 96 well plates coated with poly-D-lysine for 24 hours prior to loading with a fluorescent calcium indicator, in a particular embodiment loading with fluo-3 or fluo-4AM for up to 90 minutes, in an even more particular embodiment loading with fluo-4AM for up to 90 minutes, and in a preferred embodiment loading with fluo-4AM for 60 minutes.
In a particular embodiment, the α7 nicotinic receptor agonist was choline, a more particular embodiment choline applied at a sub-maximal concentration of 100 μM.
A control response to choline was calculated on each plate from the difference in peak fluorescence in wells receiving either choline or assay buffer alone. Compounds of the present invention were tested at a concentration range from 0.1 μM to 30 μM.
The activity ranges are defined as follows; A denotes an activity range from 1.1 till 1.5, B denotes an activity range from 1.5 till 2.0, C denotes an activity range from 2.0 till 3.0, D denotes an activity range from 3.0 till 4.5 and E denotes an efficacy from at least 4.5.

T1 sequence (P36544 23-502): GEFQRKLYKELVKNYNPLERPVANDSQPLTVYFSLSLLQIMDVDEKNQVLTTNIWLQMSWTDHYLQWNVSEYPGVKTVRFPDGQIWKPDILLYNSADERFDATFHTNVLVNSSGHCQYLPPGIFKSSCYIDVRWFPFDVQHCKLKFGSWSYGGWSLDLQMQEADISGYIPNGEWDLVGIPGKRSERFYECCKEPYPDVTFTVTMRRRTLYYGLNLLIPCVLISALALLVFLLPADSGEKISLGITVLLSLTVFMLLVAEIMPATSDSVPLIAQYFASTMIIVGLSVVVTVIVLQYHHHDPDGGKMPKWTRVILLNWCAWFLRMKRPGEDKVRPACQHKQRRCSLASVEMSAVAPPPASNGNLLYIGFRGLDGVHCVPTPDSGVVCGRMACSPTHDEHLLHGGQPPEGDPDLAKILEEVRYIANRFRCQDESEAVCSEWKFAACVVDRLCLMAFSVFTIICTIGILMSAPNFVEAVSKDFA

SMILES | Activity Range
COCc1sc(Nc2cc(Cl)ccc2Cl)nc1-c1ccncc1 [Compound 136] | E (E denotes an efficacy from at least 4.5)
NC(=O)Cc1sc(Nc2cc(Cl)ccc2Cl)nc1-c1ccncc1 [Compound 113, 2-[(2,5-dichlorophenyl)amino]-4-(4-pyridinyl)-5-thiazoleacetamide] | E (E denotes an efficacy from at least 4.5)
NC(=O)Cc1sc(Nc2cccc(C(F)(F)F)c2)nc1-c1ccccc1 [Compound 1, 2-[4-Phenyl-2-(3-trifluoromethyl-phenylamino)-thiazol-5-yl]-acetamide] | C (C denotes an activity range from 2.0 till 3.0)
O=C(NCc1sc(Nc2cccc(C(F)(F)F)c2)nc1-c1cccnc1)c1ccccc1 [Compound 164] | E (E denotes an efficacy from at least 4.5)
COCc1nc(Nc2cc(Cl)ccc2Cl)sc1C(=O)OC [Compound 140] | E (E denotes an efficacy from at least 4.5)
COc1ccc(OC)c(-c2csc(Nc3cccc(Cl)c3Cl)n2)c1 [Compound 39] | C (C denotes an activity range from 2.0 till 3.0)
COc1ccc(OC)c(-c2csc(Nc3cc(F)ccc3C)n2)c1 [Compound 33] | D (D denotes an activity range from 3.0 till 4.5)
COc1cc(OC)c(Nc2nc(-c3ccc4c(c3)OCCO4)c(CO)s2)cc1Cl [int. 19, 2-[(5-chloro-2,4-dimethoxyphenyl)amino]-4-(2,3-dihydro-1,4-benzodioxin-6-yl)-5-thiazolemethanol] | E (E denotes an efficacy from at least 4.5)
Cc1cccc(Nc2nc(-c3cnc4ccccn34)cs2)c1 [Compound 51] | C (C denotes an activity range from 2.0 till 3.0)
FC(F)(F)c1cccc(Nc2nc(-c3cnc4ccccn34)cs2)c1 [Compound 71] | B (B denotes an activity range from 1.5 till 2.0)
OCc1sc(Nc2cccc(C(F)(F)F)c2)nc1C(F)(F)F [Compound 119] | E (E denotes an efficacy from at least 4.5)
OCc1sc(Nc2ccc(Cl)cc2Cl)nc1-c1ccccc1 [Compound 3] | D (D denotes an activity range from 3.0 till 4.5)
COCCc1nc(Nc2cc(Cl)ccc2Cl)sc1C(=O)OC [Compound 157] | E (E denotes an efficacy from at least 4.5)
CCCc1nc(Nc2cc(Cl)ccc2Cl)sc1C(=O)OCC [Compound 156] | E (E denotes an efficacy from at least 4.5)
COc1ccc(Nc2nc(-c3cccnc3)c(C)s2)cc1 [Compound 139] | D (D denotes an activity range from 3.0 till 4.5)
COc1ccccc1Nc1nc(-c2ccccc2Cl)cs1 [Compound 42] | B (B denotes an activity range from 1.5 till 2.0)
OCc1sc(Nc2ccc(F)c(C(F)(F)F)c2)nc1-c1cccnc1 [Compound 91] | C (C denotes an activity range from 2.0 till 3.0)
COC(=O)c1sc(Nc2cccc(C(F)(F)F)c2)nc1C(C)C [Compound 148] | E (E denotes an efficacy from at least 4.5)
Cc1cc(Nc2nc(-c3cccnc3)c(F)s2)ccc1F [Compound 83] | C (C denotes an activity range from 2.0 till 3.0)
CC(C)c1nc(Nc2cccc(C(F)(F)F)c2)sc1CO [Compound 116] | E (E denotes an efficacy from at least 4.5)
Clc1cccc(Nc2nc(-c3cnc4sccn34)cs2)c1 [Compound 61] | C (C denotes an activity range from 2.0 till 3.0)
CC(=O)c1sc(Nc2cc(Cl)ccc2Cl)nc1C [Compound 110] | E (E denotes an efficacy from at least 4.5)
CCOC(=O)c1sc(Nc2cccc(C(F)(F)F)c2)nc1C1CCCN(C(=O)OCc2ccccc2)C1 (centres unmarked) [Compound 160] | E (E denotes an efficacy from at least 4.5)
FC(F)(F)c1cccc(Nc2nc(-c3cnc4ccccn34)cs2)c1 [Compound 56] | C (C denotes an activity range from 2.0 till 3.0)

SMILES | Activity Range
COc1cc(OC)c(Nc2nc(-c3ccc4c(c3)OCCO4)c(CC(=O)N3CCCC3)s2)cc1Cl [Compound 133] | E (E denotes an efficacy from at least 4.5)
O=C(Nc1cccnc1)c1sc(Nc2ccc(F)cc2)nc1-c1ccccc1 [Compound 169, 5-Thiazolecarboxamide, 2-[(4-fluorophenyl)amino]-4-phenyl-N-3-pyridinyl-] | D (D denotes an activity range from 3.0 till 4.5)
CCOC(=O)c1ccc(Nc2nc(-c3cccnc3)c(C)s2)cc1 [Compound 142] | E (E denotes an efficacy from at least 4.5)
N#CCc1sc(Nc2cccc(C(F)(F)F)c2)nc1-c1ccccc1 [int. 3, [4-Phenyl-2-(3-trifluoromethyl-phenylamino)-thiazol-5-yl]-acetonitrile] | D (D denotes an activity range from 3.0 till 4.5)
Brc1ccc(Nc2nc(-c3cnc4ccccn34)cs2)cn1 [Compound 45] | D (D denotes an activity range from 3.0 till 4.5)
Fc1cccc(-c2nc(Nc3cccc(C(F)(F)F)c3)sc2Br)c1 [Compound 6] | C (C denotes an activity range from 2.0 till 3.0)
CSc1ccc(Nc2nc(-c3cnc4ccccn34)cs2)cn1 [Compound 49] | E (E denotes an efficacy from at least 4.5)
Clc1ccc(Nc2nc(-c3ccccc3Cl)cs2)c(Cl)c1 [Compound 37] | C (C denotes an activity range from 2.0 till 3.0)
CNC(=O)CCc1sc(Nc2ccc(OC)cc2)nc1-c1ccnc(Cl)c1 [Compound 111] | E (E denotes an efficacy from at least 4.5)
COc1ccc(-c2csc(Nc3cccc4[nH]ncc34)n2)c(OC)c1 [Compound 35] | C (C denotes an activity range from 2.0 till 3.0)
Cc1cncc(-c2csc(Nc3cccc(Cl)c3Cl)n2)c1 [Compound 67] | C (C denotes an activity range from 2.0 till 3.0)
Cc1sc(Nc2ccc(C(F)(F)F)cc2)nc1-c1cnc2ccccn12 [Compound 85] | C (C denotes an activity range from 2.0 till 3.0)
COC(=O)c1sc(Nc2ccc(OC)cc2)nc1C(C)C [Compound 151] | E (E denotes an efficacy from at least 4.5)
CC(=O)NCc1sc(Nc2cccc(C(F)(F)F)c2)nc1-c1cccnc1 [Compound 4, N-[4-Pyridin-3-yl-2-(3-trifluoromethyl-phenylamino)-thiazol-5-ylmethyl]-acetamide] | D (D denotes an activity range from 3.0 till 4.5)
COc1cc(OC)c(Nc2nc(-c3ccncc3)c(CC(=O)N3CCCC3)s2)cc1Cl [Compound 135] | E (E denotes an efficacy from at least 4.5)
Fc1cccc(-c2csc(Nc3ccc(F)c(C(F)(F)F)c3)n2)c1 [Compound 79] | B (B denotes an activity range from 1.5 till 2.0)
Cc1cccc(Nc2nc(-c3cccnc3)cs2)c1 [Compound 76] | C (C denotes an activity range from 2.0 till 3.0)
Cc1ccc(Nc2nc(-c3cncc(Br)c3)c(CO)s2)cn1 [Compound 125] | E (E denotes an efficacy from at least 4.5)
COc1ccc(-c2csc(Nc3cccc(Cl)c3Cl)n2)c(OC)c1 [Compound 8] | C (C denotes an activity range from 2.0 till 3.0)
CNC(=O)Cc1sc(Nc2cccc(C(F)(F)F)c2)nc1-c1ccccc1 [Compound 131] | E (E denotes an efficacy from at least 4.5)
COc1ccc(Nc2nc(-c3cnc4ccccn34)cs2)cc1 [Compound 70] | D (D denotes an activity range from 3.0 till 4.5)
FC(F)(F)c1cccc(Nc2nc(-c3cncnc3)cs2)c1 [Compound 73] | C (C denotes an activity range from 2.0 till 3.0)
CCCc1nc(Nc2ccc(OC)cc2)sc1C(=O)OCC [Compound 102] | E (E denotes an efficacy from at least 4.5)
O=C(Nc1cccnc1)c1sc(Nc2ccccc2)nc1-c1ccccc1 [Compound 171, 5-Thiazolecarboxamide, 4-phenyl-2-(phenylamino)-N-3-pyridinyl-] | E (E denotes an efficacy from at least 4.5)

Tested on: not given
Experiment: not given
Conditions: not given

SMILES | melting point [°C]
COCc1sc(Nc2cc(Cl)ccc2Cl)nc1-c1ccncc1 [Compound 136] | 205.3 to 205.8
NC(=O)Cc1sc(Nc2cc(Cl)ccc2Cl)nc1-c1ccncc1 [Compound 113, 2-[(2,5-dichlorophenyl)amino]-4-(4-pyridinyl)-5-thiazoleacetamide] | 249.6 to 257.1
NC(=O)Cc1sc(Nc2cccc(C(F)(F)F)c2)nc1-c1ccccc1 [Compound 1, 2-[4-Phenyl-2-(3-trifluoromethyl-phenylamino)-thiazol-5-yl]-acetamide] | 186 to 187
O=C(NCc1sc(Nc2cccc(C(F)(F)F)c2)nc1-c1cccnc1)c1ccccc1 [Compound 164] | 215.5 to 218.9
Fc1ccc(Nc2nc(-c3cnc4ccccn34)cs2)cc1C(F)(F)F (as salt: HCl) [Compound 9] | 248
